How the values were obtained:
[1] = system: promoter region of TGF-alpha; assay: TGF-alpha promoter luciferase reporter in MLS cells; type: cell-based, human; details: increasing concentrations of cisplatin, 24 hours
Method: FIGS. 5C-5F illustrate that AREG, unlike HB-EGF and TGF-alpha, undergoes up-regulation in response to a chemotherapeutic agent. FIG. 5C is a graph illustrating results of MLS cells transfected with a luciferase reporter containing the promoter region of TGF-alpha. The luciferase activity derived from the Renilla luciferase was normalized to that derived from the firefly luciferase (co-transfection control). Twenty-four hours after transfection, increasing concentrations of cisplatin were added, and 24 hours later the cells were subjected to luciferase assays; FIG. 5D is a graph illustrating assessment of GAPDH promoter activity as described in FIG. 5C; FIG. 5E is a graph illustrating the results of MLS ovarian cancer cells exposed to increasing concentrations of cisplatin. Cells were assessed for the secretion of the indicated ligands using ELISA; and FIG. 5F is a graph illustrating assessment of the A549 lung cancer cell line analyzed as in FIG. 5E. […] Promoter activity was determined using the dual-luciferase reporter assay system according to the manufacturer's instructions (Promega). Renilla luciferase luminescence values were normalized to Firefly luminescence and quantified relative to control.

promoter region of AREG [2] = assay: AREG promoter luciferase reporter in A549 cells; type: cell-based, human; details: A549 lung cells, increasing concentrations of cisplatin, 48 hours
Method: (§1) FIGS. 5A-5B illustrate transcriptional activation of the AREG promoter by cisplatin. FIG. 5A is a graph illustrating the results of MLS cells transfected with a luciferase reporter containing the promoter region of AREG. Luciferase activity derived from the Renilla luciferase, was determined and normalized to that derived from the firefly luciferase reporter. Twenty-four hours after transfection, increasing concentrations of cisplatin were added and 48 hours later the cells were subjected to luciferase assay; and FIG. 5B illustrates the results of A549 lung cancer cells treated as in FIG. 5A. Averages of triplicates and S.D. values (bars) are presented (*P<0.03, **P<0.01, t-test). For promoter reporter assays, MLS and A549 cells were co-transfected with a Renilla luciferase plasmid containing the promoter region of AREG, TGF-alpha, a positive control of promoter activity, namely GAPDH, or a random control vector R01 used as a negative control (SwitchGear Genomics). Additionally, the pGL3-Control vector containing Firefly luciferase (Promega) was transfected as a control for transfection efficiency. Promoter activity was determined using the dual-luciferase reporter assay system according to the manufacturer's instructions (Promega). Renilla luciferase luminescence values were normalized to Firefly luminescence and quantified relative to control.

promoter region of AREG [3] = assay: AREG promoter luciferase reporter in MLS cells; type: cell-based, human; details: MLS ovarian cells, increasing concentrations of cisplatin, 48 hours
Method: as §1

MLS ovarian cancer cells = assay: MLS ovarian tumor xenograft in nude mice; type: in vivo; details: MLS tumors, AR30 100 μg/mouse twice a week, cisplatin 5 mg/kg, FIG. 7B
Method: FIG. 7A, female nude mice (6 weeks old) were inoculated subcutaneously with MLS ovarian cancer cells (2×10^6 per animal). Once tumors became palpable, mice were randomized into two groups. Eleven mice were injected intraperitoneally with an anti-AREG mAb (AR30; 200 μg/mouse; twice a week, on days: 8, 11, 14, 17, and 21). The control group also included 11 mice. Shown are means±S.D. values; FIG. 7B, female nude mice (6 weeks old) were inoculated subcutaneously with MLS ovarian cancer cells (2×10^6 per animal). Once tumors became palpable, mice were randomized into four groups. One group (8 mice) was injected intraperitoneally with the AR30 mAb (100 μg/mouse twice a week, on days: 8, 14, 17, 21, 24 and 28). Another group (8 mice) was treated with cisplatin (5 mg/kg; on days 8 and 21). The fourth group was treated with a combination of mAb AR30 and cisplatin. The control group included 12 mice; and FIG. 7C, the indicated MLS tumors were excised, and their average weights determined. Representative tumors were photographed.
All animal procedures were approved by the Weizmann Institute of Science's review board. Female athymic NCr-nude mice (6 weeks old) were inoculated subcutaneously with 2×10^6 human ovarian MLS cancer cells. Once tumors became palpable (5-7 days), the mice were randomized into groups and injected intraperitoneally at the indicated time points with the indicated monoclonal antibodies, chemotherapy or the combination. Tumor volumes were monitored twice a week, and body weights were measured once a week.

Caspase-3 = Caspase-3 cleavage immunoblot in OVCAR5 cells; type: cell-based, human; details: cisplatin 5 μg/mL overnight as positive control
Method: FIGS. 4A-4D illustrate that depletion of AREG expression inhibits tumorigenic growth of human ovarian cancer cells. FIG. 4A is a graph illustrating results of OVCAR5 ovarian cancer cells treated with lentiviral expression constructs, either a scrambled shRNA or an AREG-specific shRNA. Conditioned media were collected three days later and the levels of secreted AREG were assessed using ELISA; FIG. 4B is a graph illustrating the growth rates of shAREG or shControl OVCAR5 cells measured using the MTT assay. Shown are means±S.D. values of hexaplicates (*P<0.005, t-test); FIG. 4C is a photograph illustrating Caspase-3 cleavage as assessed using immunoblotting and OVCAR5 sub-lines stably expressing three different shAREGs, or shControl. The assay was performed either in full medium or under serum starvation. Overnight treatment with cisplatin (5 μg/mL) was used as a positive control. […] Female nude mice (6 weeks old; 10 per group) were inoculated subcutaneously with OVCAR5 ovarian cells (3×10^6 per animal) pre-treated with either a scrambled shRNA or the AREG-specific shRNA. Tumor volumes were measured as indicated. Data points are presented as mean volume±S.D. values (*P<0.005, t-test).

[4] = system: MLS ovarian cancer cells and A549 lung cancer cells; assay: ELISA of ligand secretion by MLS and A549 cells; type: cell-based, human; details: ovarian (MLS) and lung (A549) cancer cells exposed to cisplatin
Method: FIGS. 5C-5F illustrate that AREG, unlike HB-EGF and TGF-alpha, undergoes up-regulation in response to a chemotherapeutic agent. FIG. 5C is a graph illustrating results of MLS cells transfected with a luciferase reporter containing the promoter region of TGF-alpha. The luciferase activity derived from the Renilla luciferase was normalized to that derived from the firefly luciferase (co-transfection control). Twenty-four hours after transfection, increasing concentrations of cisplatin were added, and 24 hours later the cells were subjected to luciferase assays; FIG. 5D is a graph illustrating assessment of GAPDH promoter activity as described in FIG. 5C; FIG. 5E is a graph illustrating the results of MLS ovarian cancer cells exposed to increasing concentrations of cisplatin. Cells were assessed for the secretion of the indicated ligands using ELISA; and FIG. 5F is a graph illustrating assessment of the A549 lung cancer cell line analyzed as in FIG. 5E. Human cancer cell lines were seeded in 10 cm plates, covered with medium (6 mL) and incubated for 4 days. The supernatants were collected and centrifuged at 1200 rpm for 5 minutes.

With `N.N.[Cl][Pt][Cl]` [cisplatin] the “TGF-alpha promoter reporter activity” value [1] was “no consistent, cisplatin-induced changes in TGF-alpha induction”, the “increase in AREG promoter reporter activity” value (promoter region of AREG [2]) was 1.5 fold and the “increase in AREG promoter reporter activity” value (promoter region of AREG [3]) was 2 fold. For the same compound, the tumor growth (MLS ovarian cancer cells) was “only mildly inhibited”, the Caspase-3 cleavage (Caspase-3) was “cleaved only in cells incubated for 12 hours in the presence of cisplatin” and the “secretion of EGF-family ligands to the medium” value [4] was “increased secretion of AREG, not EGF, TGF-alpha or HB-EGF”.
